In the C3SDB collision cross section collection:
Where “and” joins values, the source holds several entries; their conditions need not be identical. Identical values can stand only once. Counter-ions that a name gives are not always drawn.

Settings: instrument: DT, single field, calibrated with Agilent tune mix (Agilent)

| collision cross section (N2) ([M-H]-) [Å²] | collision cross section (N2) ([M+H]+) | Structure (SMILES) | further results |
| --- | --- | --- | --- |
|  |  | O=C(CO)COP(=O)(O)O [Dihydroxyacetone phosphate] | collision cross section (N2) ([M+Na]+): 146.7 Å² |
| 152.58 |  | CCCCCCCCCCCC(=O)O [Dodecanoic acid] |  |
| 151.17 | 159.6 Å² | O=C(O)CN(CCN(CC(=O)O)CC(=O)O)CC(=O)O [EDTA] |  |
|  | 202.4 Å² and 203.2 Å² | C=C1CC[C@H](O)C/C1=C/C=C1\CCC[C@]2(C)[C@@H]([C@H](C)/C=C/[C@H](C)C(C)C)CC[C@@H]12 [Ergocalciferol] |  |
| 215.74 |  | C[C@]12CC[C@@H]3c4ccc(O[C@@H]5O[C@H](C(=O)O)[C@@H](O)[C@H](O)[C@H]5O)cc4CC[C@H]3[C@@H]1CCC2=O [Estrone-3-glucuronide] |  |
| 143.97 |  | CCO[C@@H]1O[C@H](C(=O)O)[C@@H](O)[C@H](O)[C@H]1O [Ethyl glucuronide] |  |
| 183.85 |  | CC(C)=CCC/C(C)=C/CC/C(C)=C/COP(=O)(O)OP(=O)(O)O [Farnesyl pyrophosphate] |  |
| 194.92 | 199.1 Å² | Cc1cc2nc3c(=O)[nH]c(=O)nc-3n(C[C@H](O)[C@H](O)[C@H](O)COP(=O)(O)O)c2cc1C [Flavin mononucleotide] |  |
|  |  | O=P(O)(O)OC[C@H]1O[C@@](O)(COP(=O)(O)O)[C@@H](O)[C@@H]1O [Fructose 1,6-bisphosphate] | collision cross section (N2) ([M+Na]+): 168.2 Å² |
| 172.84 |  | CCCCC/C=C\C/C=C\C/C=C\CCCCC(=O)O [Gamma-Linolenic acid] |  |
|  |  | O=P(O)(O)OC[C@H]1OC(O)[C@H](O)[C@@H](O)[C@@H]1O (stereo partly drawn) [Glucose 6-phosphate] | collision cross section (N2) ([M+Na]+): 158.1 Å² |
| 124.86 |  | O=P(O)(O)OCC(O)CO (stereo not drawn) [Glycerol 3-phosphate] |  |
| 200.58 |  | C[C@H](CCC(=O)NCC(=O)O)[C@H]1CC[C@H]2[C@@H]3[C@H](O)C[C@@H]4C[C@H](O)CC[C@]4(C)[C@H]3C[C@H](O)[C@]12C [Glycocholic acid] | collision cross section (N2) ([M+Na]+): 202 Å² |
|  | 200.9 Å² | C[C@H](CCC(=O)NCC(=O)O)[C@H]1CC[C@H]2[C@@H]3CC[C@@H]4C[C@H](O)CC[C@]4(C)[C@H]3CC[C@]12C [Glycolithocholic acid] | collision cross section (N2) ([M+Na-2H]-): 205.49 Å² |
| 139.72 |  | O=C(O)CNC(=O)c1ccccc1 [Hippuric acid] |  |
| 134.15 |  | COc1cc(CC(=O)O)ccc1O [Homovanillic acid] |  |
|  | 189.1 Å² | C[C@]12CCC(=O)C=C1CC[C@@H]1[C@@H]2[C@@H](O)C[C@@]2(C)[C@H]1CC[C@]2(O)C(=O)CO [Hydrocortisone (Cortisol)] |  |
| 139.4 |  | O=C(O)C(O)Cc1ccc(O)cc1 (stereo not drawn) [Hydroxyphenyllactic acid] |  |
| 124.5 | 132.4 Å² | O=C(O)c1c[nH]c2ccccc12 [Indole-3-carboxylic acid] |  |
| 117.08 | 121 Å² | c1ccc2[nH]ccc2c1 [Indole] |  |
|  | 136.2 Å² | O=C(O)Cc1c[nH]c2ccccc12 [Indoleacetic acid] |  |
| 146.51 | 143.8 Å² | O=C(O)C(O)Cc1c[nH]c2ccccc12 (stereo not drawn) [Indolelactic acid] |  |

| collision cross section (N2) ([M-H]-) [Å²] | collision cross section (N2) ([M+H]+) | Structure (SMILES) | further results |
| --- | --- | --- | --- |
| 140.6 |  | O=S(=O)(O)Oc1c[nH]c2ccccc12 [Indoxyl sulfate] |  |
| 176.13 | 185.6 Å² | O=c1nc[nH]c2c1ncn2[C@@H]1O[C@H](COP(=O)(O)OP(=O)(O)O)[C@@H](O)[C@H]1O [Inosine diphosphate] |  |
| 187.3 |  | O=c1nc[nH]c2c1ncn2[C@@H]1O[C@H](COP(=O)(O)OP(=O)(O)OP(=O)(O)O)[C@@H](O)[C@H]1O [Inosine triphosphate] |  |
| 254.31 | 252 Å² | CC(C)C(=O)SCCNC(=O)CCNC(=O)[C@H](O)C(C)(C)COP(=O)(O)OP(=O)(O)OC[C@H]1O[C@@H](n2cnc3c(N)ncnc32)[C@H](O)[C@@H]1OP(=O)(O)O [Isobutyryl-CoA] |  |
| 132.07 |  | CC(C)C(=O)NCC(=O)O [Isobutyrylglycine] |  |
| 127.48 |  | CC(C)CCC(=O)O [Isocaproic acid] |  |
| 138.14 | 155.1 Å² | CC(C)CC(=O)NCC(=O)O [Isovalerylglycine] |  |
|  | 137 Å² | O=C(O)c1cc(=O)c2ccccc2[nH]1 [Kynurenic acid] | collision cross section (N2) ([M+Na-2H]-): 149.51 Å² |
|  | 138.6 Å² | O=C1O[C@H]([C@@H](O)CO)C(O)=C1O [L-Ascorbic acid] |  |
|  | 133.1 Å² | C[N+](C)(C)C[C@H](O)CC(=O)[O-] [L-Carnitine] |  |
| 120.55 |  | N[C@@H](CS(=O)(=O)O)C(=O)O [L-Cysteic acid] |  |
| 129.61 |  | OC[C@H](O)[C@@H](O)[C@H](O)[C@@H](O)CO [L-Iditol] | collision cross section (N2) ([M+Na]+): 143 Å² |
| 204.49 | 214 Å² | CCCCCCCCCCCCCCCC(=O)O[C@H](CC(=O)[O-])C[N+](C)(C)C [L-Palmitoylcarnitine] |  |
|  |  | CC(C)C[C@H](N)C(=O)N1CCC[C@H]1C(=O)O [L-leucyl-L-proline] | collision cross section (N2) ([M+H-H2O]+): 149.5 Å² |
|  |  | CC(C)=CCC[C@@H](C)[C@H]1CC[C@@]2(C)C3=C(CC[C@]12C)[C@@]1(C)CC[C@H](O)C(C)(C)[C@@H]1CC3 [Lanosterol] | collision cross section (N2) ([M+H-H2O]+): 207.3 Å² |
| 199.95 |  | C[C@H](CCC(=O)O)[C@H]1CC[C@H]2[C@@H]3CC[C@@H]4C[C@H](O)CC[C@]4(C)[C@H]3CC[C@]12C [Lithocholic acid] | collision cross section (N2) ([M+H-H2O]+): 193.4 Å² |
| 193.29 |  | O=P(O)(O)OC1C(OP(=O)(O)O)C(OP(=O)(O)O)C(OP(=O)(O)O)C(OP(=O)(O)O)C1OP(=O)(O)O (stereo not drawn) [Myo-inositol hexakisphosphate] |  |
| 159.21 |  | CCCCCCCCCCCCCC(=O)O [Myristic acid] |  |
|  | 136.9 Å² | CC(=O)N[C@@H](CCCN)C(=O)O [N2-Acetyl-L-ornithine] |  |
| 159.67 |  | CNc1ncnc2c1ncn2[C@@H]1O[C@H](CO)[C@@H](O)[C@H]1O [N6-methyladenosine] | collision cross section (N2) ([M+Na]+): 170.4 Å² |
| 146.34 | 142.7 Å² | CC(=O)NCCCCNCCCN [N8-Acetylspermidine] |  |
|  | 192.9 Å² | CC(=O)N[C@H]1[C@H](O[C@H]2[C@H](O)[C@@H](NC(C)=O)C(O)O[C@@H]2CO)O[C@H](CO)[C@@H](O)[C@@H]1O (stereo partly drawn) [N,N'-Diacetylchitobiose] |  |

| Structure (SMILES) | collision cross section (N2) ([M-H]-) [Å²] | collision cross section (N2) ([M+H]+) | further results |
| --- | --- | --- | --- |
| COc1ccc2c(c1)[nH]c1c(C)nccc12 [Harmine] | 145.28 | 146 Å² |  |
| O=C(O)Cc1cnc[nH]1 [Imidazoleacetic acid] |  | 123.1 Å² |  |
